These are literature values, as cited in patent publication US20260069551A1, “Patch for treating demyelinating diseases” (Johannes Gutenberg-Universität Mainz, priority 2022, published 2026).

The data set concerns injured nerves. The following applies: 10 mg/kg/day, intraperitoneally injected.

In the case of `Cn1c(=O)c2[nH]cnc2n(C)c1=O` [theophylline, 1,3-dimethyl-7H-purine-2,6-dione], the “remyelination of injured nerves” value is given as “significant remyelination”.
